Like-named read-outs stand apart in the source and are kept apart here.
Key:
[1] = Pharmacokinetic study of ginsenosides in healthy humans after repeated oral RGE with or without LAB; type: in vivo, human; conditions: human, in vivo, po; for AUC: 104.1 mg
Procedure: A single-sequence study consisting of two periods was conducted on five healthy male subjects (body weight > 50 kg and age > 19 years) for 29 days. During the first period of the study (RGE treatment group), three pouches of RGE (30 mL, 104.1 mg of total ginsenosides) were administered to 5 subjects once daily for 14 days. On the 14th day, the subjects were admitted to the Clinical Trial Center of KNUH at 7 AM and underwent the last RGE administration at approximately 8–9 AM. Blood samples (approximately 3 mL) were collected at 0, 4, 6, 8, 10, 12, 13, 14, and 24 h after the last dose. A saline-locked angiocatheter was placed on the forearm of each subject’s hand. After discarding 1 mL of blood derived from the catheter, 3 mL of blood was drawn into a vacutainer tube containing heparin and centrifuged at 3000× g for 10 min. The supernatant plasma samples were stored at −80 °C until ginsenoside analysis.
In the second half of the study (RGE + LAB treatment group), 3 pouches of RGE (30 mL, 104.1 mg of total ginsenosides) and 1 pouch of LAB (1 billion CFU/2 g) were co-administered once daily for 14 days. On the […], the subjects were admitted to the Clinical Trial Center of KNUH at 7 AM and received the last red ginseng dose at approximately 8–9 AM. Blood samples (approximately 3 mL) were withdrawn at 0, 4, 6, 8, 10, 12, 13, 14, and 24 h intervals after the last dose and centrifuged at 3000× g for 10 min; the supernatant plasma samples were stored at −80 °C.
Briefly, to analyze GRb1, GRb2, GRc, GRd, GRe, GRf, GRg1, GRg3, GF1, and GF2, 400 μL of an internal standard (IS; 0.05 ng/mL berberine in methanol) was added to 100 μL of plasma. The mixture was vortexed for 15 min and centrifuged at 16,000× g for 5 min. After centrifugation, 400 μL of the supernatant was evaporated using a speed-dry vacuum concentrator (Christ, Osterode am Harz, Germany). The residue was reconstituted using 200 μL of 70% methanol supplemented with 0.1% formic acid, and a 10 μL aliquot was injected into the LC-MS/MS system. Chromatographic separation was performed using a Polar RP column (150 × 2.0 mm, 4.0 μm particle size; Phenomenex, Torrance, CA, USA) using a mobile phase consisting of 0.1% formic acid in water (phase A) and 0.1% formic acid in methanol (phase B). The following elution gradient was used: 69% of phase B for 0–2.0 min, 69–85% of phase B for 2.0–4.0 min, and 85–69% of phase B for 6.0–6.5 min. The flow rate was 0.27 mL/min.
The mixture was vortexed for 10 min and centrifuged at 16,000× g for 5 min. After centrifugation, the samples were frozen at −80 °C for 4 h. The upper layer was transferred to a clean tube and evaporated. The residue was reconstituted using 200 μL of 80% methanol supplemented with 0.1% formic acid, and a 10 μL aliquot was injected into the LC-MS/MS system. Chromatographic separation was performed using a Luna C18 column (150 × 2.0 mm, 3.0 μm particle size; Phenomenex, Torrance, CA, USA) and using a mobile phase consisting of water containing 0.1% formic acid: methanol containing 0.1% formic acid = 8:92 (v/v) at a flow rate of 0.15 mL/min.
The quantification of ginsenosides was carried out using multiple reaction monitoring in positive ionization mode, as previously described.
Finally, pharmacokinetic parameters were calculated using non-compartmental methods (WinNonlin version 5.1; Pharsight Co., Certara, NJ, USA). Statistical analysis was performed by Student’s t-test to compare the two groups using IBM SPSS Statistics for Windows (version 25.0; IBM Corp., Armonk, NY, USA). Differences were considered significant at p < 0.05.

P-gp = molecular target: T1, P-gp (Homo sapiens, UniProt P08183); assay: Transport of ginsenosides in P-gp-overexpressing LLC-PK1-P-gp cells; type: in vitro ADME; conditions: pig
T1 construct: host or cells: LLC-PK1-P-gp cells (passage no. 25–28)
Procedure: (§1) LLC-PK1-P-gp cells (passage no. 25–28) were seeded onto collagen-coated permeable support (1.0 μm pore size) in 24-well plates at a density of 2.5 × 10^4 cells/insert and grown for 5 days with TEER values of over 500 Ω·cm^2 [24]. The A to B transport and B to A transport of GRg3, GRh2, CK, PPD, GRg1, GRh1, and PPT (20 μM each) were measured as previously described. The concentration dependency in the B to A transport of GRh2, CK, PPD, and PPT was measured in the range of 6.25–200 μM for GRh2, CK, PPD, and PPT.
(§2) For the transport study of ginsenosides in CaCo-2 cells and LLC-PK1-P-gp cells, the ginsenoside transport rate in the A to B or B to A directions was calculated from the slope of the regression line from the mean transported amounts versus time plot. The apparent permeability (Papp) was calculated using Equation (1). (1) Papp (×10^−6 cm/s)=transport rate (nmol/min)/concentration(μM)×area(cm^2)×60s
(§3) The efflux ratio was calculated by dividing the Papp of ginsenosides from the B to A direction by that from the A to B direction.
(§4) To measure the kinetic parameters of the concentration dependence on the P-gp-mediated ginsenoside efflux, the ginsenoside transport rate in the B to A direction (ν) versus the ginsenoside concentration (S) plot was fitted in the Michaelis–Menten Equation (2) using Sigma Plot (version 12.0, Systat Software Inc. Chicago, IL, USA). (2) ν=Vmax×S/Km+S

LAB [2] = assay: Incubation of individual ginsenosides with LAB (metabolic pathway); type: in vitro ADME; conditions: individual ginsenoside 10 μM with LAB (1 billion CFU), 7 days; GF2 to CK, CK to PPD, GRg1 to GRh1; result in words
Procedure: (§5) To identify the effects of LAB on ginsenoside metabolism, an in vitro fermentation study was performed according to the method of Jeon et al., with slight modifications. Briefly, RGE (10 mL, 1 pouch) and 2 g LAB (containing 1 billion CFU) were suspended in 10 mL autoclaved MRS broth (550 mg broth powder dissolved in 10 mL water). For the 15 ginsenosides, individual ginsenosides (10 μM each) and 2 g of LAB were suspended in 20 mL of autoclaved MRS broth (550 mg broth powder dissolved in 20 mL water). The mixture was incubated for 7 days in a shaking incubator at 37 °C and 300 rpm, and a 0.1 mL aliquot of the incubation mixture was collected on days 0, 3, 5, and 7. The incubation medium was diluted 100-fold with distilled water and stored at −80 °C to analyze ginsenosides using the LC-MS/MS system.
(§6) To measure the metabolic activity of ginsenosides, the formation rate of ginsenosides (pmol/day) was calculated by dividing the slope of the regression line by the amount of deglycosylated ginsenosides versus the incubation time plot by the initial concentration of individual ginsenosides.

[3] = rat, in vivo, po; cited from earlier work
[4] = Transport (permeability) of ginsenosides in CaCo-2 cell monolayers; type: in vitro ADME; conditions: human
Procedure: (§7) CaCo-2 cells (passage no 41–43) were seeded onto collagen-coated permeable support (1.0 μm pore size) in a 24-well plate at a density of 2.5 × 10^4 cells/insert and cultured for 21 days in Dulbecco’s modified eagle’s medium supplemented with 10% fetal bovine serum, 1% non-essential amino acids, and 1% penicillin-streptomycin at 37 °C in a humidified atmosphere (5% CO2/95% air). After confirming that the transepithelial electrical resistance (TEER) of the CaCo-2 cell monolayer was over 400 Ω·cm^2, Apical to basal (A to B) transport and B to A transport of ginsenosides using 50 µM, GRb1 was investigated as previously described. The same permeability study was performed using 50 µM GRb2, GRc, GRd, GRg3, GRh2, GF2, CK, PPD, GRe, GRf, GRg1, GRh1, GF1, or PPT.
as §2, §3

LAB [5] = assay: In vitro RGE fermentation with LAB; type: in vitro ADME
Procedure: as §5, §6

CaCo-2 cells = assay: Transport (permeability) of ginsenosides in CaCo-2 cell monolayers; type: in vitro ADME; conditions: Caco-2
Procedure: as §7, §2, §3

[6] = system: T2, CC(C)=CCCC(C)(O)C1CCC2(C)C1C(O)CC1C3(C)CCC(O)C(C)(C)C3C(O)CC12C; assay: Transport of ginsenosides in P-gp-overexpressing LLC-PK1-P-gp cells; type: in vitro ADME; conditions: other: B to A transport rate in LLC-PK1-P-gp cells, 6.25–200 μM, Michaelis–Menten fit
T2 construct: host or cells: LLC-PK1-P-gp cells (passage no. 25–28)
Procedure: as §1, §2, §3, §4

[7] = system: T3, CC(C)=CCCC(C)(O)C1CCC2(C)C1C(O)CC1C3(C)CCC(O)C(C)(C)C3CCC12C; assay: as above; type: in vitro ADME; conditions: other: B to A transport rate in LLC-PK1-P-gp cells, 6.25–200 μM, Michaelis–Menten fit
T3 construct: host or cells: LLC-PK1-P-gp cells (passage no. 25–28)
Procedure: as §1, §2, §3, §4

[8] = system: T4, CC(C)=CCCC(C)(OC1OC(CO)C(O)C(O)C1O)C1CCC2(C)C1C(O)CC1C3(C)CCC(O)C(C)(C)C3CCC12C; assay: as above; type: in vitro ADME; conditions: other: B to A transport rate in LLC-PK1-P-gp cells, 6.25–200 μM, Michaelis–Menten fit
T4 construct: host or cells: LLC-PK1-P-gp cells (passage no. 25–28)
Procedure: as §1, §2, §3, §4

[9] = system: T5, [H][C@@]1(O[C@H]2CC[C@]3(C)[C@@]4([H])C[C@@H](O)[C@]5([H])[C@@]([H])([C@@](C)(O)CCC=C(C)C)CC[C@@]5(C)[C@]4(C)CC[C@@]3([H])C2(C)C)O[C@H](CO)[C@@H](O)[C@H](O)[C@H]1O; assay: as above; type: in vitro ADME; conditions: other: B to A transport rate in LLC-PK1-P-gp cells, 6.25–200 μM, Michaelis–Menten fit
T5 construct: host or cells: LLC-PK1-P-gp cells (passage no. 25–28)
Procedure: as §1, §2, §3, §4

[10] = RGE incubated with LAB (1 billion CFU) for 7 days at 37 °C, result in words

T1 sequence (P08183 whole entry): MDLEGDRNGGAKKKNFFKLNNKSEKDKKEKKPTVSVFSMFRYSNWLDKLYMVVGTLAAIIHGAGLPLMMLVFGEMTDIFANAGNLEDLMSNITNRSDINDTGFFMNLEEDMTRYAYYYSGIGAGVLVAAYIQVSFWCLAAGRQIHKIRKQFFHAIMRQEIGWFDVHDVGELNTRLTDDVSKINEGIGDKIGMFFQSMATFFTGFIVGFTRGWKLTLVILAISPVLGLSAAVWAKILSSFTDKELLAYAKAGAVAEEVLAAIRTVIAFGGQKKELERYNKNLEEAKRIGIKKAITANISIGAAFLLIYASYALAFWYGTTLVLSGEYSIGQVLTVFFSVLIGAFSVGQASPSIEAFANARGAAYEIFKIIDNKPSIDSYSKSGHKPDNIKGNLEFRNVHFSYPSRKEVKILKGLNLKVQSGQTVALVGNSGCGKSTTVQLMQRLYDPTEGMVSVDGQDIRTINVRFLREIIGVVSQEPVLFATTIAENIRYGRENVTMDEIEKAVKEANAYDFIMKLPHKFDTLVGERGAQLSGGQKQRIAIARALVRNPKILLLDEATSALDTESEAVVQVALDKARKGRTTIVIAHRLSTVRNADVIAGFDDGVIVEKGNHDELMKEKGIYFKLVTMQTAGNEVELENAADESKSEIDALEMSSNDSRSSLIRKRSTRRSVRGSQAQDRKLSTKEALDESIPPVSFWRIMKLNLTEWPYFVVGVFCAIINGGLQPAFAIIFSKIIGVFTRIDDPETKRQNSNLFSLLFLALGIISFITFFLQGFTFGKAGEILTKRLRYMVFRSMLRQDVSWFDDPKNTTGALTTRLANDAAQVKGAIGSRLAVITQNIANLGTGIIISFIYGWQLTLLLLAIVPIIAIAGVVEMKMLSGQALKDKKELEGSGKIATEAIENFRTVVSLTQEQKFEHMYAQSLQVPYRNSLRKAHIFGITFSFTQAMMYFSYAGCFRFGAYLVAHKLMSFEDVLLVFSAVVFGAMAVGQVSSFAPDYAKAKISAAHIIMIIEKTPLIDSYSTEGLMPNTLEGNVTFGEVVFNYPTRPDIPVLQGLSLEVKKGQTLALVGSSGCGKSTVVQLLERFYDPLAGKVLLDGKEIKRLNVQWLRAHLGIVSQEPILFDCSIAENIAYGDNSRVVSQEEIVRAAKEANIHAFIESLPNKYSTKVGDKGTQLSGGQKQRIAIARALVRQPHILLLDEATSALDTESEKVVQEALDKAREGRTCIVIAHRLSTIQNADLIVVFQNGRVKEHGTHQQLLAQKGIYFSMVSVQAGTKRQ

CC(C)=CCCC(C)(OC1OC(CO)C(O)C(O)C1O)C1CCC2(C)C1C(O)CC1C3(C)CCC(O)C(C)(C)C3CCC12C (stereo not drawn) [CK, compound K]
Cmax ([1]; male): 5.1 ± 2.2 ng/mL
AUC ([1]; male): 0.0579 ± 0.0166 µg·h/mL
MRT ([1]; male, MRT): 17.2 ± 4.5 h
Tmax ([1]; male, Tmax): 8 ± 4 h
Papp A→B at 20 μM (P-gp; LLC-PK1): 1.4 nm/s
Papp B→A at 20 μM (P-gp; LLC-PK1): 82.5 ± 5.8 nm/s
CLint (intrinsic clearance) (P-gp; llc-pk1): 690 µL/min
LAB-mediated deglycosylation (formation of deglycosylated ginsenoside from the incubated ginsenoside) (LAB [2]): the highest
Oral BA [3]: 4.3%

CC(C)=CCCC(C)(OC1OC(CO)C(O)C(O)C1O)C1CCC2(C)C1C(O)CC1C3(C)CCC(OC4OC(CO)C(O)C(O)C4O)C(C)(C)C3CCC12C (stereo not drawn) [GF2]
Papp A→B at 50 µM ([4]; Caco-2): < 3 nm/s
Relative abundance / metabolic activity following fermentation of RGE with LAB (LAB [5]; [10]): remained unchanged
LAB-mediated deglycosylation (formation of deglycosylated ginsenoside from the incubated ginsenoside) (LAB [2]): negligible

CC(C)=CCC[C@](C)(O[C@@H]1O[C@H](CO)[C@@H](O)[C@H](O)[C@H]1O)[C@H]1CC[C@]2(C)[C@@H]1[C@H](O)C[C@@H]1[C@@]3(C)CC[C@H](O[C@@H]4O[C@H](CO)[C@@H](O)[C@H](O)[C@H]4O[C@@H]4O[C@H](CO)[C@@H](O)[C@H](O)[C@H]4O)C(C)(C)[C@@H]3CC[C@]12C [GRd]
Cmax [1]: 2.1 ± 0.9 ng/mL
MRT [1]: 18.2 ± 1.4 h
Tmax [1]: 7.5 ± 5.8 h
AUC [1]: 0.0379 ± 0.0126 µg·h/mL
A to B Papp (CaCo-2 cells): below 0.3 × 10^−6 cm/s
Relative abundance / metabolic activity following fermentation of RGE with LAB (LAB [5]): marked decrease
Oral bioavailability (BA) [3]: less than 5%

CC(C)=CCCC(C)(OC1OC(CO)C(O)C(O)C1O)C1CCC2(C)C1C(O)CC1C3(C)CCC(O)C(C)(C)C3C(OC3OC(CO)C(O)C(O)C3O)CC12C (stereo not drawn) [GRg1]
Papp A→B at 50 µM ([4]; CaCo-2 cell monolayers, 50 µM ginsenoside, read-out: A to B Papp): < 3 nm/s
efflux ratio at 20 μM (P-gp; LLC-PK1, LLC-PK1-P-gp cells, 20 μM, B to A Papp divided by A to B Papp, read-out: ER): 1
Papp A→B at 20 μM (P-gp; LLC-PK1-P-gp cells, 20 μM, mean ± SD, n = 3, read-out: A to B permeability): 1 ± 0.2 nm/s
Papp B→A at 20 μM (P-gp; LLC-PK1-P-gp cells, 20 μM, mean ± SD, n = 3, read-out: B to A permeability): 1 ± 0.3 nm/s
Relative abundance / metabolic activity following fermentation of RGE with LAB (LAB [5]; [10]): marked decrease
LAB-mediated deglycosylation (formation of deglycosylated ginsenoside from the incubated ginsenoside) (LAB [2]): the highest

P-gp (Homo sapiens)
Km [6]: 83 µM
Vmax [6]: 19.2 nmol/min
Km [7]: 76 µM
Vmax [7]: 0.40 nmol/min
Km [8]: 98 µM
Vmax [8]: 67.7 nmol/min
Km [9]: 151 µM
Vmax [9]: 75.9 nmol/min
